# PubChem BioAssay (NCI)
#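 Assay format: 96-well plates, 48-hour exposure. TGI marks complete inhibition of growth.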 Where a SMILES comes first, the peptide text is derived from it. The star is where a group is joined. Cbz = O=C(OCc1ccccc1)*
# Tested on: NCI-H522 lung
# Experiment: DTP human tumour cell line panel, 48 h
row,SMILES,TGI
1,Cn1ccc(C(=O)NCCN(CCNC(=O)c2ccn(C)c(=O)c2O)CCNC(=O)c2cccc(=O)n2O)c(O)c1=O,> 100 µM
2,Cc1cc(S(=O)(=O)Nc2n[nH]c(N)n2)c(SCC(=O)O)cc1Cl,> 10 µM
3,CCOC(=O)C12OC(CCC1=O)C(C(=O)OC)=C2C(=O)OC (stereo not given),> 10 µM
4,CC(=O)c1[nH]c(NCc2ccccc2)c(C(=S)Nc2ccccc2)c1N,0.166 µM
5,CN1CCN(C(=S)N2CCN(C)CC2)CC1,> 45.6 µM
6,O=Cc1[nH]c(=O)[nH]c(=O)c1C(=O)O,> 100 µM
7,Nc1nc(SC/C=C/c2ccccc2)c2[nH]cnc2n1,> 100 µM
8,CC(=O)c1c(C)n([O-])c2cc(Cl)c(Cl)cc2[n+]1=O,27.9 µM
9,CC1CCC(=O)C(C(=O)CC2CC(=O)N(C)C(=O)C2)C1 (stereo not given),> 100 µM
10,C/C=C(/C)C(=O)O[C@@H]1CCN2CC[C@H](COC(=O)/C(=C/C)CO)C12 (stereo not given in full),> 100 µM

# Tested on: OVCAR-4 ovarian
# Experiment: DTP human tumour cell line panel, 48 h
row,SMILES,TGI
1,CN(CC(=O)O)c1ncc2c(n1)CCCC2,> 100 µM
2,N#Cc1c(N)nc2n[nH]c(N)c2c1-c1ccc(Cl)cc1,> 100 µM
3,Oc1[nH]c2ccccc2c1N=NC(=S)Nc1cccc(Cl)c1,59.4 µM
4,COc1cc(NS(C)(=O)=O)ccc1Nc1c2ccccc2nc2c1[nH]c1ccc(NC3OC(CO)C(O)C(O)C3O)cc12 (stereo not given),4.66 µM
5,O=C(O)CCC(NC(=O)OCc1ccccc1)C(=O)NC(Cc1cnc[nH]1)C(=O)O (stereo not drawn) (Cbz-Glu-His-OH; configuration not given here),> 100 µM
6,O=[N+]([O-])/C(C(Cl)=C(Cl)Cl)=C(/Cl)Sc1ccccc1,3.75 µM
7,CCOC(=O)c1nnc2c(C(=O)OCC)c3ccccc3n2c1N,> 100 µM
8,Clc1ccc(C2C3COc4ccccc4C3=NN2c2ccccc2)cc1 (stereo not given),> 100 µM
9,NC(=O)C(C(N)=O)=C(O)C(=O)/C=C(\O)c1ccccc1,> 100 µM
10,Cn1ccc(C(=O)NCCN(CCNC(=O)c2ccn(C)c(=O)c2O)CCNC(=O)c2cccc(=O)n2O)c(O)c1=O,> 100 µM
11,Cc1cc(S(=O)(=O)Nc2n[nH]c(N)n2)c(SCC(=O)O)cc1Cl,> 10 µM
12,CCOC(=O)C12OC(CCC1=O)C(C(=O)OC)=C2C(=O)OC (stereo not given),> 10 µM
13,CC(=O)c1[nH]c(NCc2ccccc2)c(C(=S)Nc2ccccc2)c1N,79.9 µM
14,CN1CCN(C(=S)N2CCN(C)CC2)CC1,> 100 µM
15,O=Cc1[nH]c(=O)[nH]c(=O)c1C(=O)O,> 100 µM
16,Nc1nc(SC/C=C/c2ccccc2)c2[nH]cnc2n1,> 100 µM
17,CC(=O)c1c(C)n([O-])c2cc(Cl)c(Cl)cc2[n+]1=O,63.8 µM
18,CC1CCC(=O)C(C(=O)CC2CC(=O)N(C)C(=O)C2)C1 (stereo not given),> 100 µM
19,C/C=C(/C)C(=O)O[C@@H]1CCN2CC[C@H](COC(=O)/C(=C/C)CO)C12 (stereo not given in full),> 100 µM

# Tested on: RXF 393 renal
# Experiment: DTP human tumour cell line panel, 48 h
row,SMILES,TGI
1,CN(CC(=O)O)c1ncc2c(n1)CCCC2,> 100 µM
2,N#Cc1c(N)nc2n[nH]c(N)c2c1-c1ccc(Cl)cc1,7.26 µM
3,Oc1[nH]c2ccccc2c1N=NC(=S)Nc1cccc(Cl)c1,48.7 µM
4,COc1cc(NS(C)(=O)=O)ccc1Nc1c2ccccc2nc2c1[nH]c1ccc(NC3OC(CO)C(O)C(O)C3O)cc12 (stereo not given),0.61 µM
5,O=C(O)CCC(NC(=O)OCc1ccccc1)C(=O)NC(Cc1cnc[nH]1)C(=O)O (stereo not drawn) (Cbz-Glu-His-OH; configuration not given here),> 100 µM
6,O=[N+]([O-])/C(C(Cl)=C(Cl)Cl)=C(/Cl)Sc1ccccc1,9.86 µM
7,CCOC(=O)c1nnc2c(C(=O)OCC)c3ccccc3n2c1N,> 100 µM
8,Clc1ccc(C2C3COc4ccccc4C3=NN2c2ccccc2)cc1 (stereo not given),> 100 µM
9,NC(=O)C(C(N)=O)=C(O)C(=O)/C=C(\O)c1ccccc1,> 100 µM
10,Cn1ccc(C(=O)NCCN(CCNC(=O)c2ccn(C)c(=O)c2O)CCNC(=O)c2cccc(=O)n2O)c(O)c1=O,> 100 µM
11,Cc1cc(S(=O)(=O)Nc2n[nH]c(N)n2)c(SCC(=O)O)cc1Cl,> 10 µM
12,CCOC(=O)C12OC(CCC1=O)C(C(=O)OC)=C2C(=O)OC (stereo not given),> 10 µM
13,CC(=O)c1[nH]c(NCc2ccccc2)c(C(=S)Nc2ccccc2)c1N,35.6 µM
14,CN1CCN(C(=S)N2CCN(C)CC2)CC1,> 100 µM
15,O=Cc1[nH]c(=O)[nH]c(=O)c1C(=O)O,> 100 µM
16,Nc1nc(SC/C=C/c2ccccc2)c2[nH]cnc2n1,> 100 µM
17,CC(=O)c1c(C)n([O-])c2cc(Cl)c(Cl)cc2[n+]1=O,> 100 µM
18,CC1CCC(=O)C(C(=O)CC2CC(=O)N(C)C(=O)C2)C1 (stereo not given),> 100 µM
19,C/C=C(/C)C(=O)O[C@@H]1CCN2CC[C@H](COC(=O)/C(=C/C)CO)C12 (stereo not given in full),> 100 µM

# Tested on: SK-MEL-28 melanoma
# Experiment: DTP human tumour cell line panel, 48 h
row,SMILES,TGI
1,CN(CC(=O)O)c1ncc2c(n1)CCCC2,> 100 µM
2,N#Cc1c(N)nc2n[nH]c(N)c2c1-c1ccc(Cl)cc1,> 100 µM
3,Oc1[nH]c2ccccc2c1N=NC(=S)Nc1cccc(Cl)c1,> 100 µM
4,COc1cc(NS(C)(=O)=O)ccc1Nc1c2ccccc2nc2c1[nH]c1ccc(NC3OC(CO)C(O)C(O)C3O)cc12 (stereo not given),1.96 µM
5,O=C(O)CCC(NC(=O)OCc1ccccc1)C(=O)NC(Cc1cnc[nH]1)C(=O)O (stereo not drawn) (Cbz-Glu-His-OH; configuration not given here),> 100 µM
6,O=[N+]([O-])/C(C(Cl)=C(Cl)Cl)=C(/Cl)Sc1ccccc1,3.28 µM
7,CCOC(=O)c1nnc2c(C(=O)OCC)c3ccccc3n2c1N,> 100 µM
8,Clc1ccc(C2C3COc4ccccc4C3=NN2c2ccccc2)cc1 (stereo not given),> 100 µM
9,NC(=O)C(C(N)=O)=C(O)C(=O)/C=C(\O)c1ccccc1,> 100 µM
10,Cn1ccc(C(=O)NCCN(CCNC(=O)c2ccn(C)c(=O)c2O)CCNC(=O)c2cccc(=O)n2O)c(O)c1=O,> 100 µM
11,Cc1cc(S(=O)(=O)Nc2n[nH]c(N)n2)c(SCC(=O)O)cc1Cl,> 10 µM
12,CCOC(=O)C12OC(CCC1=O)C(C(=O)OC)=C2C(=O)OC (stereo not given),> 10 µM
13,CC(=O)c1[nH]c(NCc2ccccc2)c(C(=S)Nc2ccccc2)c1N,52 µM
14,CN1CCN(C(=S)N2CCN(C)CC2)CC1,> 100 µM
15,O=Cc1[nH]c(=O)[nH]c(=O)c1C(=O)O,> 100 µM
16,Nc1nc(SC/C=C/c2ccccc2)c2[nH]cnc2n1,> 100 µM
17,CC(=O)c1c(C)n([O-])c2cc(Cl)c(Cl)cc2[n+]1=O,> 100 µM
18,CC1CCC(=O)C(C(=O)CC2CC(=O)N(C)C(=O)C2)C1 (stereo not given),> 100 µM
19,C/C=C(/C)C(=O)O[C@@H]1CCN2CC[C@H](COC(=O)/C(=C/C)CO)C12 (stereo not given in full),> 100 µM

# Tested on: SK-OV-3 ovarian
# Experiment: DTP human tumour cell line panel, 48 h
row,SMILES,TGI
1,CN(CC(=O)O)c1ncc2c(n1)CCCC2,> 100 µM
2,N#Cc1c(N)nc2n[nH]c(N)c2c1-c1ccc(Cl)cc1,7.33 µM
3,Oc1[nH]c2ccccc2c1N=NC(=S)Nc1cccc(Cl)c1,61.1 µM
4,COc1cc(NS(C)(=O)=O)ccc1Nc1c2ccccc2nc2c1[nH]c1ccc(NC3OC(CO)C(O)C(O)C3O)cc12 (stereo not given),0.299 µM
5,O=C(O)CCC(NC(=O)OCc1ccccc1)C(=O)NC(Cc1cnc[nH]1)C(=O)O (stereo not drawn) (Cbz-Glu-His-OH; configuration not given here),> 100 µM
6,O=[N+]([O-])/C(C(Cl)=C(Cl)Cl)=C(/Cl)Sc1ccccc1,34.3 µM
7,CCOC(=O)c1nnc2c(C(=O)OCC)c3ccccc3n2c1N,91.8 µM
8,Clc1ccc(C2C3COc4ccccc4C3=NN2c2ccccc2)cc1 (stereo not given),> 100 µM
9,NC(=O)C(C(N)=O)=C(O)C(=O)/C=C(\O)c1ccccc1,> 100 µM
10,Cn1ccc(C(=O)NCCN(CCNC(=O)c2ccn(C)c(=O)c2O)CCNC(=O)c2cccc(=O)n2O)c(O)c1=O,> 100 µM
11,Cc1cc(S(=O)(=O)Nc2n[nH]c(N)n2)c(SCC(=O)O)cc1Cl,> 10 µM
12,CCOC(=O)C12OC(CCC1=O)C(C(=O)OC)=C2C(=O)OC (stereo not given),> 10 µM
13,CC(=O)c1[nH]c(NCc2ccccc2)c(C(=S)Nc2ccccc2)c1N,> 100 µM
14,CN1CCN(C(=S)N2CCN(C)CC2)CC1,> 100 µM
15,O=Cc1[nH]c(=O)[nH]c(=O)c1C(=O)O,> 100 µM
16,Nc1nc(SC/C=C/c2ccccc2)c2[nH]cnc2n1,> 100 µM
17,CC(=O)c1c(C)n([O-])c2cc(Cl)c(Cl)cc2[n+]1=O,54.4 µM
18,CC1CCC(=O)C(C(=O)CC2CC(=O)N(C)C(=O)C2)C1 (stereo not given),> 100 µM
19,C/C=C(/C)C(=O)O[C@@H]1CCN2CC[C@H](COC(=O)/C(=C/C)CO)C12 (stereo not given in full),> 100 µM

# Tested on: SN12C renal
# Experiment: DTP human tumour cell line panel, 48 h
row,SMILES,TGI
1,CN(CC(=O)O)c1ncc2c(n1)CCCC2,> 100 µM
2,N#Cc1c(N)nc2n[nH]c(N)c2c1-c1ccc(Cl)cc1,51.6 µM
3,Oc1[nH]c2ccccc2c1N=NC(=S)Nc1cccc(Cl)c1,> 100 µM
4,COc1cc(NS(C)(=O)=O)ccc1Nc1c2ccccc2nc2c1[nH]c1ccc(NC3OC(CO)C(O)C(O)C3O)cc12 (stereo not given),0.387 µM
5,O=C(O)CCC(NC(=O)OCc1ccccc1)C(=O)NC(Cc1cnc[nH]1)C(=O)O (stereo not drawn) (Cbz-Glu-His-OH; configuration not given here),> 100 µM
6,O=[N+]([O-])/C(C(Cl)=C(Cl)Cl)=C(/Cl)Sc1ccccc1,3.55 µM
7,CCOC(=O)c1nnc2c(C(=O)OCC)c3ccccc3n2c1N,81.6 µM
8,Clc1ccc(C2C3COc4ccccc4C3=NN2c2ccccc2)cc1 (stereo not given),> 100 µM
9,NC(=O)C(C(N)=O)=C(O)C(=O)/C=C(\O)c1ccccc1,> 100 µM
10,Cn1ccc(C(=O)NCCN(CCNC(=O)c2ccn(C)c(=O)c2O)CCNC(=O)c2cccc(=O)n2O)c(O)c1=O,> 100 µM
11,Cc1cc(S(=O)(=O)Nc2n[nH]c(N)n2)c(SCC(=O)O)cc1Cl,> 10 µM
12,CCOC(=O)C12OC(CCC1=O)C(C(=O)OC)=C2C(=O)OC (stereo not given),> 10 µM
13,CC(=O)c1[nH]c(NCc2ccccc2)c(C(=S)Nc2ccccc2)c1N,50.8 µM
14,CN1CCN(C(=S)N2CCN(C)CC2)CC1,> 100 µM
15,O=Cc1[nH]c(=O)[nH]c(=O)c1C(=O)O,> 100 µM
16,Nc1nc(SC/C=C/c2ccccc2)c2[nH]cnc2n1,> 100 µM
17,CC(=O)c1c(C)n([O-])c2cc(Cl)c(Cl)cc2[n+]1=O,86.2 µM
18,CC1CCC(=O)C(C(=O)CC2CC(=O)N(C)C(=O)C2)C1 (stereo not given),> 100 µM
19,C/C=C(/C)C(=O)O[C@@H]1CCN2CC[C@H](COC(=O)/C(=C/C)CO)C12 (stereo not given in full),> 100 µM
